The source of these data is US9359358B2, “Cyclohexyl azetidine derivatives as JAK inhibitors” (Incyte Holdings Corporation, priority 2011, dated 2016).

In one assay the target is T1, human JAK1 (Homo sapiens, UniProt P23458).
T1 construct: human JAK1 (a.a. 837-1142); His tag (N); made in house; host or cells: insect cells (baculovirus)
Description: In Vitro JAK Kinase Assay (HTRF, phosphorylation of a biotinylated peptide), JAK1. Format: biochemical. The note with it: Table 5; catalytic domain a.a. 837-1142, assay of Example A. The method in brief: (§1)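 HTRF detection (SA-APC plus Eu-labeled anti-phosphotyrosine Py20, 40 min after EDTA stop) quantified biotinylated-peptide phosphorylation. Kinase reactions with human JAK1 or JAK2 catalytic domains lasted 1 h at room temperature.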
In general terms: TR-FRET usually uses a lanthanide donor and a delayed reading to cut background.

The target in another assay is T2, human JAK2 (Homo sapiens, UniProt O60674).
T2 construct: JAK2 (a.a. 828-1132); His tag (N); made in house; host or cells: insect cells (baculovirus)
T2 sequence (O60674 828-1132): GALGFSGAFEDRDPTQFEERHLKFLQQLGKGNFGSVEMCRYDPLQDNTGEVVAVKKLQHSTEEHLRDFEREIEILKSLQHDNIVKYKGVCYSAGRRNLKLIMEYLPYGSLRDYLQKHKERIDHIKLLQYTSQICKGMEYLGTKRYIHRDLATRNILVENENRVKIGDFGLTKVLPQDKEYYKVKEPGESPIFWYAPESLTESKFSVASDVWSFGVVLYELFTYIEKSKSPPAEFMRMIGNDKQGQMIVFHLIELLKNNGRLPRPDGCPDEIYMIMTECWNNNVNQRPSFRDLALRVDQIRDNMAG
Kind of assay: In Vitro JAK Kinase Assay (HTRF, phosphorylation of a biotinylated peptide), JAK2. The format is biochemical. The note with it: Table 5; assay of Example A. The method in brief:
as §1

Bounds are passed on as bounds.

T1 sequence (P23458 849-1154): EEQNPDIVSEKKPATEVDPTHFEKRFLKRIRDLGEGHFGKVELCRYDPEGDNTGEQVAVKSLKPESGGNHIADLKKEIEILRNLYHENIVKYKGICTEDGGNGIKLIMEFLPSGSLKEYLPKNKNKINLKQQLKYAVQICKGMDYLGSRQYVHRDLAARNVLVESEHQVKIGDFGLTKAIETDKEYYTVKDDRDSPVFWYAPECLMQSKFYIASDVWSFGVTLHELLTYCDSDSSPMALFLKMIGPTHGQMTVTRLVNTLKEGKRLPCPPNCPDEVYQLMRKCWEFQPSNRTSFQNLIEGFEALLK

For the molecule `N#CCC1(n2cc(-c3ncnc4[nH]ccc34)cn2)CN([C@H]2CC[C@@H](Oc3cc(CNCCCO)cc(C(F)(F)F)n3)CC2)C1` [Example 70, {1-(cis-4-{[4-{[(3-hydroxypropyl)amino]methyl}-6-(trifluoromethyl)pyridin-2-yl]oxy}cyclohexyl)-3-[4-(7H-pyrrolo[2,3-d]pyrimidin-4-yl)-1H-pyrazol-1-yl]azetidin-3-yl}acetonitrile tris(trifluoroacetate)], the IC50 at human JAK1 was below 10 nM. The “JAK2/JAK1 IC50 ratio” value on human JAK2 was “≧10”.

Consider `N#CCC1(n2cc(-c3ncnc4[nH]ccc34)cn2)CN([C@H]2CC[C@@H](Oc3cc(CNC4CC4)cc(C(F)(F)F)n3)CC2)C1` [Example 72, {1-(cis-4-{[4-[(cyclopropylamino)methyl]-6-(trifluoromethyl)pyridin-2-yl]oxy}cyclohexyl)-3-[4-(7H-pyrrolo[2,3-d]pyrimidin-4-yl)-1H-pyrazol-1-yl]azetidin-3-yl}acetonitrile tris(trifluoroacetate)], for which, on human JAK1, the IC50 was below 20 nM. Besides, the “JAK2/JAK1 IC50 ratio” value on human JAK2 is “≧10”.

At human JAK1, `C[C@@H](CO)NCc1cc(O[C@H]2CC[C@@H](N3CC(CC#N)(n4cc(-c5ncnc6[nH]ccc56)cn4)C3)CC2)nc(C(F)(F)F)c1` [Example 73, {1-(cis-4-{[4-({[(1S)-2-hydroxy-1-methylethyl]amino}methyl)-6-(trifluoromethyl)pyridin-2-yl]oxy}cyclohexyl)-3-[4-(7H-pyrrolo[2,3-d]pyrimidin-4-yl)-1H-pyrazol-1-yl]azetidin-3-yl}acetonitrile tris(trifluoroacetate)] displayed an IC50 below 10 nM. The “JAK2/JAK1 IC50 ratio” value at human JAK2 was “≧10”.

At human JAK1, `N#CCC1(n2cc(-c3ncnc4[nH]ccc34)cn2)CN([C@H]2CC[C@@H](Oc3cc(CNCCO)cc(C(F)(F)F)n3)CC2)C1` [Example 74, {1-(cis-4-{[4-{[(2-hydroxyethyl)amino]methyl}-6-(trifluoromethyl)pyridin-2-yl]oxy}cyclohexyl)-3-[4-(7H-pyrrolo[2,3-d]pyrimidin-4-yl)-1H-pyrazol-1-yl]azetidin-3-yl}acetonitrile tris(trifluoroacetate)] yielded a half-maximal inhibitory concentration (IC50) below 10 nM. For the same molecule, the “JAK2/JAK1 IC50 ratio” value on human JAK2 was “≧10”.

Molecule `C[C@H](CO)NCc1cc(O[C@H]2CC[C@@H](N3CC(CC#N)(n4cc(-c5ncnc6[nH]ccc56)cn4)C3)CC2)nc(C(F)(F)F)c1` [Example 75, {1-(cis-4-{[4-({[(1R)-2-hydroxy-1-methylethyl]amino}methyl)-6-(trifluoromethyl)pyridin-2-yl]oxy}cyclohexyl)-3-[4-(7H-pyrrolo[2,3-d]pyrimidin-4-yl)-1H-pyrazol-1-yl]azetidin-3-yl}acetonitrile tris(trifluoroacetate)] registered an IC50 against human JAK1 below 10 nM. Also, the “JAK2/JAK1 IC50 ratio” value on human JAK2 was “≧10”.

Consider `N#CCC1(n2cc(-c3ncnc4[nH]ccc34)cn2)CN([C@H]2CC[C@@H](Oc3cc(CNCC4CC4)cc(C(F)(F)F)n3)CC2)C1` [Example 76, {1-(cis-4-{[4-{[(cyclopropylmethyl)amino]methyl}-6-(trifluoromethyl)pyridin-2-yl]oxy}cyclohexyl)-3-[4-(7H-pyrrolo[2,3-d]pyrimidin-4-yl)-1H-pyrazol-1-yl]azetidin-3-yl}acetonitrile tris(trifluoroacetate)], for which the IC50 at human JAK1 is below 10 nM. Moreover, the “JAK2/JAK1 IC50 ratio” value at human JAK2 was “≧10”.

`N#CCC1(n2cc(-c3ncnc4[nH]ccc34)cn2)CN([C@H]2CC[C@@H](Oc3cc(CNC4CCC4)cc(C(F)(F)F)n3)CC2)C1` [Example 77, {1-(cis-4-{[4-[(cyclobutylamino)methyl]-6-(trifluoromethyl)pyridin-2-yl]oxy}cyclohexyl)-3-[4-(7H-pyrrolo[2,3-d]pyrimidin-4-yl)-1H-pyrazol-1-yl]azetidin-3-yl}acetonitrile tris(trifluoroacetate)] had an IC50 against human JAK1 below 10 nM. Moreover, the “JAK2/JAK1 IC50 ratio” value at human JAK2 is reported as “≧10”.

As for `N#CCC1(n2cc(-c3ncnc4[nH]ccc34)cn2)CN([C@H]2CC[C@@H](Oc3cc(CN4CCC4)cc(C(F)(F)F)n3)CC2)C1` [Example 78, {1-(cis-4-{[4-(azetidin-1-ylmethyl)-6-(trifluoromethyl)pyridin-2-yl]oxy}cyclohexyl)-3-[4-(7H-pyrrolo[2,3-d]pyrimidin-4-yl)-1H-pyrazol-1-yl]azetidin-3-yl}acetonitrile tris(trifluoroacetate)], at human JAK1, the IC50 was below 10 nM. For the same molecule, the “JAK2/JAK1 IC50 ratio” value at human JAK2 is reported as “≧10”.

`N#CCC1(n2cc(-c3ncnc4[nH]ccc34)cn2)CN([C@H]2CC[C@@H](Oc3cc(CN4CC(O)C4)cc(C(F)(F)F)n3)CC2)C1` [Example 79, {1-(cis-4-{[4-[(3-hydroxyazetidin-1-yl)methyl]-6-(trifluoromethyl)pyridin-2-yl]oxy}cyclohexyl)-3-[4-(7H-pyrrolo[2,3-d]pyrimidin-4-yl)-1H-pyrazol-1-yl]azetidin-3-yl}acetonitrile tris(trifluoroacetate)] yielded an IC50 against human JAK1 below 10 nM. Besides, the “JAK2/JAK1 IC50 ratio” value at human JAK2 was “≧10”.

At human JAK1, `CNC(=O)c1cc(O[C@H]2CC[C@@H](N3CC(CC#N)(n4cc(-c5ncnc6[nH]ccc56)cn4)C3)CC2)nc(C(F)(F)F)c1` [Example 80, 2-[(cis-4-{3-(cyanomethyl)-3-[4-(7H-pyrrolo[2,3-d]pyrimidin-4-yl)-1H-pyrazol-1-yl]azetidin-1-yl}cyclohexyl)oxy]-N-methyl-6-(trifluoromethyl)isonicotinamide bis(trifluoroacetate)] yielded a 50% inhibitory concentration (IC50) below 10 nM. At human JAK2, the “JAK2/JAK1 IC50 ratio” value is “≧10”.

`CN(C)C(=O)c1cc(O[C@H]2CC[C@@H](N3CC(CC#N)(n4cc(-c5ncnc6[nH]ccc56)cn4)C3)CC2)nc(C(F)(F)F)c1` [Example 81, 2-[(cis-4-{3-(cyanomethyl)-3-[4-(7H-pyrrolo[2,3-d]pyrimidin-4-yl)-1H-pyrazol-1-yl]azetidin-1-yl}cyclohexyl)oxy]-N,N-dimethyl-6-(trifluoromethyl)isonicotinamide bis(trifluoroacetate)] yielded an IC50 against human JAK1 below 10 nM. Further, the “JAK2/JAK1 IC50 ratio” value on human JAK2 is “≧10”.

As to `CN(CCO)C(=O)c1cc(O[C@H]2CC[C@@H](N3CC(CC#N)(n4cc(-c5ncnc6[nH]ccc56)cn4)C3)CC2)nc(C(F)(F)F)c1` [Example 82, 2-[(cis-4-{3-(cyanomethyl)-3-[4-(7H-pyrrolo[2,3-d]pyrimidin-4-yl)-1H-pyrazol-1-yl]azetidin-1-yl}cyclohexyl)oxy]-N-(2-hydroxyethyl)-N-methyl-6-(trifluoromethyl)isonicotinamide bis(trifluoroacetate)], on human JAK1, the IC50 was below 10 nM. Further, the “JAK2/JAK1 IC50 ratio” value at human JAK2 was “≧10”.

Consider `CC(C)NC(=O)c1cc(O[C@H]2CC[C@@H](N3CC(CC#N)(n4cc(-c5ncnc6[nH]ccc56)cn4)C3)CC2)nc(C(F)(F)F)c1` [Example 83, 2-[(cis-4-{3-(cyanomethyl)-3-[4-(7H-pyrrolo[2,3-d]pyrimidin-4-yl)-1H-pyrazol-1-yl]azetidin-1-yl}cyclohexyl)oxy]-N-isopropyl-6-(trifluoromethyl)isonicotinamide bis(trifluoroacetate)], for which the IC50 at human JAK1 was below 10 nM. For the same molecule, the “JAK2/JAK1 IC50 ratio” value on human JAK2 is recorded as “≧10”.

`C[C@@H](CO)NC(=O)c1cc(O[C@H]2CC[C@@H](N3CC(CC#N)(n4cc(-c5ncnc6[nH]ccc56)cn4)C3)CC2)nc(C(F)(F)F)c1` [Example 84, 2-[(cis-4-{3-(cyanomethyl)-3-[4-(7H-pyrrolo[2,3-d]pyrimidin-4-yl)-1H-pyrazol-1-yl]azetidin-1-yl}cyclohexyl)oxy]-N-[(1S)-2-hydroxy-1-methylethyl]-6-(trifluoromethyl)isonicotinamide bis(trifluoroacetate)] returned an IC50 on human JAK1 below 10 nM. In addition, at human JAK2, the “JAK2/JAK1 IC50 ratio” value is recorded as “≧10”.

For `C[C@H](CO)NC(=O)c1cc(O[C@H]2CC[C@@H](N3CC(CC#N)(n4cc(-c5ncnc6[nH]ccc56)cn4)C3)CC2)nc(C(F)(F)F)c1` [Example 85, 2-[(cis-4-{3-(cyanomethyl)-3-[4-(7H-pyrrolo[2,3-d]pyrimidin-4-yl)-1H-pyrazol-1-yl]azetidin-1-yl}cyclohexyl)oxy]-N-[(1R)-2-hydroxy-1-methylethyl]-6-(trifluoromethyl)isonicotinamide bis(trifluoroacetate)], the IC50 on human JAK1 was below 10 nM. The “JAK2/JAK1 IC50 ratio” value on human JAK2 is given as “≧10”.

Molecule `N#CCC1(n2cc(-c3ncnc4[nH]ccc34)cn2)CN([C@H]2CC[C@@H](Oc3cc(C(=O)NC4CC4)cc(C(F)(F)F)n3)CC2)C1` [Example 86, 2-[(cis-4-{3-(cyanomethyl)-3-[4-(7H-pyrrolo[2,3-d]pyrimidin-4-yl)-1H-pyrazol-1-yl]azetidin-1-yl}cyclohexyl)oxy]-N-cyclopropyl-6-(trifluoromethyl)isonicotinamide bis(trifluoroacetate)] showed an IC50 at human JAK1 below 10 nM. Further, the “JAK2/JAK1 IC50 ratio” value on human JAK2 is given as “≧10”.

Regarding `CN(C(=O)c1cc(O[C@H]2CC[C@@H](N3CC(CC#N)(n4cc(-c5ncnc6[nH]ccc56)cn4)C3)CC2)nc(C(F)(F)F)c1)C1CC1` [Example 87, 2-[(cis-4-{3-(cyanomethyl)-3-[4-(7H-pyrrolo[2,3-d]pyrimidin-4-yl)-1H-pyrazol-1-yl]azetidin-1-yl}cyclohexyl)oxy]-N-cyclopropyl-N-methyl-6-(trifluoromethyl)isonicotinamide bis(trifluoroacetate)], the IC50 at human JAK1 is below 10 nM. For the same molecule, on human JAK2, the “JAK2/JAK1 IC50 ratio” value is on record as “≧10”.

As for `N#CCC1(n2cc(-c3ncnc4[nH]ccc34)cn2)CN([C@H]2CC[C@@H](Oc3cc(C(=O)N4CC(O)C4)cc(C(F)(F)F)n3)CC2)C1` [Example 89, {1-(cis-4-{[4-[(3-hydroxyazetidin-1-yl)carbonyl]-6-(trifluoromethyl)pyridin-2-yl]oxy}cyclohexyl)-3-[4-(7H-pyrrolo[2,3-d]pyrimidin-4-yl)-1H-pyrazol-1-yl]azetidin-3-yl}acetonitrile bis(trifluoroacetate)], the IC50 at human JAK1 is below 10 nM. Further, at human JAK2, the “JAK2/JAK1 IC50 ratio” value is on record as “≧10”.

As usually defined, the IC50 is the point on the concentration scale where inhibition reaches its midpoint.
